Earlier results on two molecules are cited in patent US20140031355A1, “HETEROCYCLIC COMPOUNDS AND THEIR USES” (Amgen Inc., priority 2010, published 2014).

In data set [1] the test system is rheumatoid arthritis model. The settings on record: in vivo.
The subject of data set [2] is systemic lupus erythematosis model. The settings on record: in vivo.
Data set [3] has as its target T1, p110δ (Homo sapiens, UniProt O00329).
T1 sequence (O00329 1-1044): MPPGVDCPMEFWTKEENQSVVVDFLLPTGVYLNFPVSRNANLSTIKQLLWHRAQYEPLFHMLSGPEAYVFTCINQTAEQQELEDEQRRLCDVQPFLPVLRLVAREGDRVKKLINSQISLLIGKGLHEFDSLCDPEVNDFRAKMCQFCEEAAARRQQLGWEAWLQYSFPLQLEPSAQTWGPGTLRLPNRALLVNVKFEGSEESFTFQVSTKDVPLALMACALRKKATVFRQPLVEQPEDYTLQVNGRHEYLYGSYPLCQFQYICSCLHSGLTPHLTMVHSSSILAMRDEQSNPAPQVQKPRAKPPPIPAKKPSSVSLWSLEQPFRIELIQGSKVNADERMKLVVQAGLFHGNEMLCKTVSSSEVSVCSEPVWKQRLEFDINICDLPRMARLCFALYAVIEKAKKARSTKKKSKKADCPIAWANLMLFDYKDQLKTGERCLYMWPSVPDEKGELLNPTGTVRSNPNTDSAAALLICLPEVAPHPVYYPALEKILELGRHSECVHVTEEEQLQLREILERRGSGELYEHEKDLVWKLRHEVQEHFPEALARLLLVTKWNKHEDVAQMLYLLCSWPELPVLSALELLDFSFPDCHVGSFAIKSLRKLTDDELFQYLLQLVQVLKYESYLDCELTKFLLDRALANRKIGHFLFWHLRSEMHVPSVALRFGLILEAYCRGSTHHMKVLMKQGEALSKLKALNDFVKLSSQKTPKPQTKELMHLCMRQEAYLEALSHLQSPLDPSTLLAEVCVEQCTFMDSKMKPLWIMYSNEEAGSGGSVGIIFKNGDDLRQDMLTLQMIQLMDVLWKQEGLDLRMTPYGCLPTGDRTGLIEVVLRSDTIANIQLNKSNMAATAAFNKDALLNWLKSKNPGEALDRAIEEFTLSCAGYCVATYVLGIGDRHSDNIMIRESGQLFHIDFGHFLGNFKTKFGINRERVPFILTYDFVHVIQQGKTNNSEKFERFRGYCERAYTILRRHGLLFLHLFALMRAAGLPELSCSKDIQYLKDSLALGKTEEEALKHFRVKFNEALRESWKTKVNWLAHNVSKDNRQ

The subject of data set [4] is passive cutaneous anaphylaxis (PCA). The conditions noted are these: absence of functional delta (IC 87114 and p110δ D910A mice).
In data set [5] the test system is protein kinases.
The subject of data set [6] is ovalbumin-induced airway inflammation.

On to `O=C1NC(=O)/C(=C\c2ccc3nccnc3c2)S1` [AS 605240], for which the “efficacy in a mouse model of rheumatoid arthritis” value in data set [1] is “efficacious”. Further, the “onset of disease in a model of systemic lupus erythematosis” value in data set [2] is “delay onset of disease”.
`Cc1ccccc1-n1c(Cn2cnc3c(N)ncnc32)nc2cccc(C)c2c1=O` [IC87114]: the “inhibits p110δ” value in data set [3] is on record as “high nanomolar range (triple digit)”. Also, in data set [4], the “passive cutaneous anaphylaxis (PCA)” value is “significantly reduced”. The “activity against any protein kinases tested” value in data set [5] is “no activity”. The “inflammation and disease in a murine model of asthma” value in data set [6] was “significantly ameliorate”.
